{"source": "patent US8071558B2", "about": "“Application of D-psicose to suppression of abnormal circadian increase in blood glucose level” (Rare Sugar Production Technical Research Laboratories, LLC., priority 2005, dated 2011)", "key": {"[1]": {"system": "Male Wistar rats", "test": "Oral glucose tolerance test: influence of D-psicose on the reaction of increasing blood glucose", "assay_type": "in vivo, rat", "method": "Male Wistar rats of age 6 months were fed ad libitum under a condition that the bright cycle was at a temperature of 25° C. and a humidity of 50 to 70% from 8:00 am to 20:00 pm, for preliminary feeding for one week. On the day before the experiment, the rats were fasted for 12 hours and subsequently orally given D-glucose at 2 g/kg (in the form of 50% glucose solution) using a probe. Blood was drawn before the dosing and 30, 60, 90, 120, 150 and 180 minutes after the dosing. Blood glucose level was measured with a blood glucose meter. Alternatively, D-fructose or D-psicose at 0.32 g/kg (at 16% of D-glucose) was simultaneously given with D-glucose at 2 g/kg. In the same manner, blood glucose level was measured. Based on the resulting blood glucose levels, the area under the curve of blood glucose level (ΔAUC) was calculated."}, "[2]": {"system": "Male Wistar rats", "test": "Influence of D-psicose diet on liver weight and composition (16-week feeding)", "assay_type": "in vivo, rat", "conditions": "16 weeks", "method": "Twenty-four male Wistar rats of age 3 weeks were fed ad libitum under a condition that the bright cycle was at a temperature of 25° C. and a humidity of 50 to 70% from 8:00 am to 20:00 pm, for preliminary feeding for one week. Subsequently, the rats were divided into 4 groups, each group consisting of 6 rats. The groups were defined a high fat/D-psicose diet (HF-P) group; a high fat/cellulose diet (HF-C) group; a low fat/D-psicose diet (LF-P) group; and a low fat/cellulose diet (LF-C) group. 20% beef fat and 5% soybean oil were used to prepare the high fat diets. 5% soybean oil was used to prepare the low fat diets. 5% D-psicose or cellulose was added to the individual diets. These rats were fed these experimental diets and water ad libitum for 16 weeks. On the last day of the experiment, the rats were decapitated and sacrificed to death, from which liver, flounder muscle and intraperitoneal fat tissues were resected. Glycogen, neutral fat and protein were assayed in the liver, while glycogen content was assayed in the flounder muscle. [table]"}, "[3]": {"biological_target": "T1, sucrase (Rattus norvegicus, UniProt P23739)", "T1 construct": "from tissue; host or cells: small intestine of live male Wistar rats (oral sugar load)", "T1 sequence (P23739 whole entry)": "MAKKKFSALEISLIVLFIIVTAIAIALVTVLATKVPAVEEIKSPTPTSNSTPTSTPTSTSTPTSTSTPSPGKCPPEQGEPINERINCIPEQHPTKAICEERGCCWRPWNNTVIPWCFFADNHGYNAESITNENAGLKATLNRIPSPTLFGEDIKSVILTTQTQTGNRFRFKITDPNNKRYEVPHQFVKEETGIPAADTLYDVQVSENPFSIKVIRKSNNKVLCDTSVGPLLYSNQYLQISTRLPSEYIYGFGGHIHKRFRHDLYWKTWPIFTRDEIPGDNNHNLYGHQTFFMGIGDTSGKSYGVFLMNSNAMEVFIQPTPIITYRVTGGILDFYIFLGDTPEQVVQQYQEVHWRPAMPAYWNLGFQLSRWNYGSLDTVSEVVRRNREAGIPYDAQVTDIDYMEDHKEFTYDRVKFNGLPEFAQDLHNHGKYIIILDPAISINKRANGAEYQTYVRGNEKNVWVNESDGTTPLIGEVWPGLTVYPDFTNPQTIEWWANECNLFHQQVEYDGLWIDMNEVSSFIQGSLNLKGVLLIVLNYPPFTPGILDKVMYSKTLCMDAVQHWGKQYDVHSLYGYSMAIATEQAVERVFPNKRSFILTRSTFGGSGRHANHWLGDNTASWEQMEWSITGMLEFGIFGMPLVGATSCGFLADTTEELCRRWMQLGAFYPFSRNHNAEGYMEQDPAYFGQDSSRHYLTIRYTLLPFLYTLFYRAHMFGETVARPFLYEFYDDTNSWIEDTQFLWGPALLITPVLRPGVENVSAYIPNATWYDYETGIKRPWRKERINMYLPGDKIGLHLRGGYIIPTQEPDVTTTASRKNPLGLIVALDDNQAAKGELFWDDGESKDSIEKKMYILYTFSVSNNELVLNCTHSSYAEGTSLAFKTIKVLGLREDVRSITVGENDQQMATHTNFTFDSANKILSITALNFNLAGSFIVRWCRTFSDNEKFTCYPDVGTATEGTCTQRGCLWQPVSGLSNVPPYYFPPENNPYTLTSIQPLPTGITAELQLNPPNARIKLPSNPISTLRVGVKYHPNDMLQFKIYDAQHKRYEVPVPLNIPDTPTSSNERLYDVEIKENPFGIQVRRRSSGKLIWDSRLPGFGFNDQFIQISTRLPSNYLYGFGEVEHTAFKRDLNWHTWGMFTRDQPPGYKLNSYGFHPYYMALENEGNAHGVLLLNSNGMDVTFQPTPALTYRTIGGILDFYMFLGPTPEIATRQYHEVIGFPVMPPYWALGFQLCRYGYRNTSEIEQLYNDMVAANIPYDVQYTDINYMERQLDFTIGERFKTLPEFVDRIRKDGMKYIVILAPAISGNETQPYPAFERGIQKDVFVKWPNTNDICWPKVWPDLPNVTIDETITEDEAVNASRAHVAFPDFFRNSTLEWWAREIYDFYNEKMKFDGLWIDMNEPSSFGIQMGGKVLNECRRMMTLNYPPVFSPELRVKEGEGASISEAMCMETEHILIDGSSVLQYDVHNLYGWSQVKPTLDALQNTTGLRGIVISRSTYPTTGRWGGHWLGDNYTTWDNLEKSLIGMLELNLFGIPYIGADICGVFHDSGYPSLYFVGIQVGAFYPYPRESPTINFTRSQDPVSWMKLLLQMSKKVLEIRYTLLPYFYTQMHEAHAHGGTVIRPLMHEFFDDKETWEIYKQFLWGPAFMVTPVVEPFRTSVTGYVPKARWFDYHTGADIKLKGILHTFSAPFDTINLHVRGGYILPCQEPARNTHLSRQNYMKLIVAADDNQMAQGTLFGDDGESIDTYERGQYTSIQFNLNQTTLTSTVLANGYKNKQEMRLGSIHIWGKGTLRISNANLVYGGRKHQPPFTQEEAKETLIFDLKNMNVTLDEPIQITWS", "test": "Sucrose administration experiment (inhibition of sucrase in vivo), plasma glucose", "conditions": "rats", "procedure": "Sucrose 2 g/kg+L-arabinose 200 mg/kg (SA)\nSucrose 2 g/kg+D-xylose 200 mg/kg (SX)\nSucrose 2 g/kg+D-fructose 200 mg/kg (SF)\nSucrose 2 g/kg+D-psicose 200 mg/kg (SP)\nSucrose 2 g/kg+(fructose 150 mg/kg+psicose 50 mg/kg) (SFP)"}, "[4]": {"system": "maltase", "test": "Maltose administration experiment (inhibition of maltase in vivo), plasma glucose", "parameters": "species or system rat", "conditions": "rats", "method": "(§1) Thirty-six male Wistar rats of age 6 months are divided into 6 groups. The following sugars were given to the rats in the individual groups after 12-hour fasting. Before the administration and 30, 60, 90, 120 and 180 minutes after the administration, blood is drawn from the tail vein, to assay plasma glucose and insulin concentration.\n2. Maltose 2 g/kg+L-arabinose 200 mg/kg (MA)\n3. Maltose 2 g/kg+D-xylose 200 mg/kg (MX)\n4. Maltose 2 g/kg+D-fructose 200 mg/kg (MF)\n5. Maltose 2 g/kg+D-psicose 200 mg/kg (MP)\n6. Maltose 2 g/kg+(fructose 150 mg/kg+psicose 50 mg/kg) (MFP)\n(§2) Before the administration and 30, 60, 90, 120 and 180 minutes after the administration, plasma glucose level was assayed. The plasma glucose level 180 minutes later was used to calculate the area under the curve of plasma glucose level (ΔAUC)."}, "[5]": {"system": "Male Wistar rats", "test": "Soluble starch administration experiment, plasma glucose", "assay_type": "in vivo, rat", "method": "as §1\n1. Soluble starch 2 g/kg (SS)\n2. Soluble starch 2 g/kg+L-arabinose 200 mg/kg (SSA)\n3. Soluble starch 2 g/kg+D-xylose 200 mg/kg (SSX)\n4. Soluble starch 2 g/kg+D-fructose 200 mg/kg (SSF)\n5. Soluble starch 2 g/kg+D-psicose 200 mg/kg (SSP)\n6. Soluble starch 2 g/kg+(fructose 150 mg/kg+psicose 50 mg/kg) (SSFP)\nas §2"}, "[6]": {"system": "Male Wistar rats", "test": "Intra-day variation of plasma glucose concentration in rats fed 5% sugar diets", "assay_type": "in vivo, rat", "conditions": "5% in diet, fed twice daily for 8 weeks", "text": "Forty male Wistar rats of age 3 weeks were preliminarily fed for one week and then divided into 4 groups. Then, a control diet (AIN-76A), and the control diet with addition of 5% D-fructose, the control diet with addition of 5% D-psicose, and the control diet with addition of 5% psico-rare sugar were fed to the rats, twice daily (at 8 to 9 am and at 20 to 21 pm) ad libitum for 8 weeks. At 2 am, 6 am, 10 am, 14 pm, 18 pm and 22 pm on the week 7 or 8 of the feeding, blood was drawn from the tail veins of the rats. Plasma was separated from the blood to assay glucose concentration."}, "[7]": {"system": "liver", "conditions": "in vivo; cited from earlier work"}, "[8]": {"system": "pancreatic island cells", "conditions": "in vitro; cited from earlier work"}, "[9]": {"system": "α-glucosidase", "conditions": "in vitro; cited from earlier work"}, "[10]": {"system": "liver", "conditions": "D-psicose added up to 20% of the weight of the feeds; cited from earlier work"}, "[11]": {"conditions": "D-glucose 2 g/kg + 0.32 g/kg test sugar"}, "[12]": {"conditions": "sucrose 2 g/kg + test sugar 200 mg/kg"}, "[13]": {"conditions": "maltose 2 g/kg + test sugar 200 mg/kg"}, "[14]": {"conditions": "soluble starch 2 g/kg + test sugar 200 mg/kg"}}, "data": [{"smiles": "O=C(CO)[C@H](O)[C@H](O)[C@H](O)CO", "note": "[D-psicose]", "values": [{"measurement": "increasing rate of blood glucose level compared with D-fructose", "setting": "[1]; [11]", "result": "likely reduced"}, {"measurement": "ΔAUC of blood glucose level compared with single D-glucose administration", "setting": "[1]; [11]", "result": "significantly low"}, {"measurement": "blood glucose level compared with single administration of D-glucose", "setting": "[1]; D-glucose 2 g/kg + 0.32 g/kg test sugar, minutes after administration", "result": "significantly low in 60, 90 and 120 minutes"}, {"measurement": "increase of the blood glucose level", "setting": "[1]; oral D-glucose 2 g/kg with test sugar 0.32 g/kg (16% of D-glucose) simultaneously", "result": "suppressed"}, {"measurement": "liver weight, effect of addition of D-psicose", "setting": "[2]; 5% in diet, irrespective of the fat content, vs cellulose diet", "result": "increased"}, {"measurement": "hepatic glycogen content, effect of addition of D-psicose", "setting": "[2]; 5% in diet, vs cellulose diet", "result": "tended to increase"}, {"measurement": "protein content per liver, effect of addition of D-psicose", "setting": "[2]; 5% in diet, vs cellulose diet", "result": "significantly increased"}, {"measurement": "weight of intraperitoneal fat tissues, effect of addition of D-psicose", "setting": "[2]; 5% in diet, vs cellulose diet", "result": "no influence"}, {"measurement": "Flounder muscle weight", "setting": "[2]; high fat diet + 5% D-psicose", "result": "210 ± 8", "unit": "mg"}, {"measurement": "Liver weight", "setting": "[2]; high fat diet + 5% D-psicose", "result": "9.5 ± 0.5", "unit": "g"}, {"measurement": "Weight of intraperitoneal fat tissues", "setting": "[2]; high fat diet + 5% D-psicose", "result": "27 ± 2", "unit": "g"}, {"measurement": "Flounder muscle weight", "setting": "[2]; low fat diet + 5% D-psicose", "result": "209 ± 10", "unit": "mg"}, {"measurement": "Liver weight", "setting": "[2]; low fat diet + 5% D-psicose", "result": "13.2 ± 0.3", "unit": "g"}, {"measurement": "Weight of intraperitoneal fat tissues", "setting": "[2]; low fat diet + 5% D-psicose", "result": "23 ± 1", "unit": "g"}, {"measurement": "Plasma glucose level, 0 min", "setting": "[3]; before sucrose 2 g/kg + test sugar 200 mg/kg", "result": 89, "unit": "mg/dL"}, {"measurement": "increase of blood glucose level up to 60 minutes after the administration, compared with sucrose alone", "setting": "[3]; given simultaneously with sucrose", "result": "suppressed"}, {"measurement": "Plasma glucose level, 30 min", "setting": "[3]; [12]", "result": "128 ± 12", "unit": "ab mg/dl"}, {"measurement": "Plasma glucose level, 60 min", "setting": "[3]; [12]", "result": "139 ± 13", "unit": "ab mg/dl"}, {"measurement": "Plasma glucose level, 90 min", "setting": "[3]; [12]", "result": "150 ± 20", "unit": "a mg/dl"}, {"measurement": "Plasma glucose level, 120 min", "setting": "[3]; [12]", "result": "143 ± 28", "unit": "mg/dL"}, {"measurement": "ΔAUC of plasma glucose level", "setting": "[3]; [12]", "result": 5339, "unit": "min^− mg/dl"}, {"measurement": "Plasma glucose level, 0 min", "setting": "[4]; before maltose 2 g/kg + test sugar 200 mg/kg", "result": "82 ± 8", "unit": "mg/dL"}, {"measurement": "action to suppress the increase of blood glucose level", "setting": "[4]; given simultaneously with maltose (experiment 2)", "result": "the effect was low"}, {"measurement": "Plasma glucose level, 30 min", "setting": "[4]; [13]", "result": "125 ± 21", "unit": "mg/dL"}, {"measurement": "Plasma glucose level, 60 min", "setting": "[4]; [13]", "result": "147 ± 16", "unit": "b mg/dl"}, {"measurement": "Plasma glucose level, 90 min", "setting": "[4]; [13]", "result": "146 ± 14", "unit": "mg/dL"}, {"measurement": "Plasma glucose level, 120 min", "setting": "[4]; [13]", "result": "132 ± 13", "unit": "mg/dL"}, {"measurement": "ΔAUC of plasma glucose level", "setting": "[4]; [13]", "result": 5887, "unit": "min^− mg/dl"}, {"measurement": "Plasma glucose level, 0 min", "setting": "[5]; before soluble starch 2 g/kg + test sugar 200 mg/kg", "result": "91 ± 10", "unit": "mg/dL"}, {"measurement": "action to suppress the increase of blood glucose level", "setting": "[5]; given simultaneously with soluble starch (experiment 3)", "result": "the effect was low"}, {"measurement": "Plasma glucose level, 30 min", "setting": "[5]; [14]", "result": "128 ± 12", "unit": "mg/dL"}, {"measurement": "Plasma glucose level, 60 min", "setting": "[5]; [14]", "result": "123 ± 21", "unit": "mg/dL"}, {"measurement": "Plasma glucose level, 90 min", "setting": "[5]; [14]", "result": "121 ± 17", "unit": "mg/dL"}, {"measurement": "Plasma glucose level, 120 min", "setting": "[5]; [14]", "result": "122 ± 16", "unit": "mg/dL"}, {"measurement": "ΔAUC of plasma glucose level", "setting": "[5]; [14]", "result": 3344, "unit": "min^− mg/dl"}, {"measurement": "increment of the area under the curve of plasma glucose concentration (ΔAUC) based on 8 am, compared with control and D-fructose groups", "setting": "[6]", "result": "significantly small"}, {"measurement": "plasma glucose concentration compared with the control group and the D-fructose group", "setting": "[6]; week 7 or 8", "result": "low throughout the day"}, {"measurement": "toxicity causing the deterioration of the hepatic function", "setting": "[7]", "result": "no toxicity"}, {"measurement": "insulin secretion from pancreatic island cells", "setting": "[8]", "result": "promoted"}, {"measurement": "α-glucosidase inhibition", "setting": "[9]", "result": "inhibits"}, {"measurement": "liver weight per body weight", "setting": "[10]", "result": "tended to increase"}]}]}
